# Where two headings read alike, the source gives them in different places.
# Biological target: T1, F508delCFTR (Homo sapiens, UniProt P13569, DEL508-508)
# T1 construct: expressed in transfected cells; host or cells: CFBE4lo-F508delCFTR-HRP cells (human lung derived epithelial cell line, doxycycline-inducible)
# Experiment: Cell Surface Expression-Horse Radish Peroxidase (CSE-HRP) Assay
# Format: cell-based
# Conditions: for EC50: CFBE4lo-F508delCFTR-HRP cells, 18-24 hours at 33° C.; for Emax / Maximum % activity (with co-corrector): maximum at any tested concentration (up to 20 μM), normalized to on-plate positive control (2 μM co-corrector); for Maximum % activity (with co-corrector): with co-corrector 2 μM
# Method: Cell Surface Expression-Horse Radish Peroxidase (CSE-HRP) Assay
# A cellular assay for measuring the F508delCFTR cell surface expression after correction with test compounds either without or with a co-corrector (2 μM of 3-[(2R,4R)-4-({[1-(2,2-difluoro-1,3-benzodioxol-5-yl)cyclopropyl]carbonyl}amino)-7-methoxy-3,4-dihydro-2H-chromen-2-yl]benzoic acid), was developed in human lung derived epithelial cell line (CFBE4lo−) (Veit G et al, (2012) Mol Biol Cell. 23(21): 4188-4202). The development was achieved by expressing the F508delCFTR mutation along with a horseradish peroxidase (HRP) in the fourth exofacial loop, and then measuring the HRP activity using luminescence readout from these cells, CFBE4lo-F508delCFTR-HRP, that were incubated overnight with the test corrector compounds, either without or with the co-corrector. For this primary assay, the CFBE4lo-F508delCFTR-HRP cells were plated in 384-well plates (Greiner Bio-one; Cat 781080) at 4,000 cells/well along with 0.5 μg/mL doxycycline to induce the F508delCFTR-HRP expression and further incubated at 37° C., 5% CO2 for 72 hours. The test compounds were then added either without or with a co-corrector at the required concentrations and further incubated for 18-24 hours at 33° C. The highest concentration tested was 20 μM with an 8-point concentration response curve using a 3-fold dilution in both the test compound without or with the co-corrector. Three replicate plates were run to determine one EC50. All plates contained negative controls (dimethyl sulfoxide, DMSO) and positive control (2 μM of 3-[(2R,4R)-4-({[1-(2,2-difluoro-1,3-benzodioxol-5-yl)cyclopropyl]carbonyl}amino)-7-methoxy-3,4-dihydro-2H-chromen-2-yl]benzoic acid) as well as on-plate concentration response of the positive control. Post incubation, the plates were washed 5× times with Dulbecco's phosphate buffered saline (DPBS), followed by the addition of the HRP substrate, luminol (50 μL), and measuring the HRP activity using luminescence readout on EnVision® Multilabel Plate Reader (Perkin Elmer; product number 2104-0010). The raw counts from the experiment were analyzed using Accelrys® Assay Explorer v3.3.
# Z′ greater than 0.5 was used as passing quality control criteria for the plates.
# The Z′ is defined as: 1−[3*SDPositive Control+3*SDNegative Control/Absolute(Meanpostivie Control−MeanNegative Control)] wherein “SD” is standard deviation.
# The % activity measured at each of the 8 test concentrations of the test compound added either without or with a co-corrector (2 μM of 3-[(2R,4R)-4-({[1-(2,2-difluoro-1,3-benzodioxol-5-yl)cyclopropyl]carbonyl}amino)-7-methoxy-3,4-dihydro-2H-chromen-2-yl]benzoic acid) was normalized to the on-plate positive control using the following formulae: % activity(Test compound without co-corrector)=[(test compound without co-corrector response−DMSO response)/(positive control response−DMSO response)]*100 % activity(Test compound with co-corrector)=[(test compound with co-corrector response−DMSO response)/(positive control response−DMSO response)]*100
# The maximum % activity achieved for the test compound either without or with a co-corrector at any tested concentration is presented in Table 1 along with the respective EC50's calculated using the following general sigmoidal curve with variable Hill slope equation (described as Model 42 in the Accelrys® Assay Explorer v3.3 software): y=(a−d)/(1+(x/c)^b)+d
# General sigmoidal curve with concentration, response, top, bottom, EC50 and Hill slope. This model describes a sigmoidal curve with an adjustable baseline, a. The equation can be used to fit curves where response is either increasing or decreasing with respect to the independent variable, “x”.
# “x” is a concentration of drug under test.
# “a” is the maximum response, and “d” is the minimum response
# “c” is the inflection point (EC50) for the curve. That is, “y” is halfway between the lower and upper asymptotes when x=c.
# “b” is the slope-factor or Hill coefficient. […]
# [1] = test compound without co-corrector, HRP luminescence readout, read-out: EC50 (without co-corrector)
# [2] = test compound without co-corrector
# [3] = with co-corrector 2 μM 3-[(2R,4R)-4-({[1-(2,2-difluoro-1,3-benzodioxol-5-yl)cyclopropyl]carbonyl}amino)-7-methoxy-3,4-dihydro-2H-chromen-2-yl]benzoic acid, read-out: EC50 (with co-corrector)
# T1 sequence (P13569 with tags, fused parts or gaps DEL508-508): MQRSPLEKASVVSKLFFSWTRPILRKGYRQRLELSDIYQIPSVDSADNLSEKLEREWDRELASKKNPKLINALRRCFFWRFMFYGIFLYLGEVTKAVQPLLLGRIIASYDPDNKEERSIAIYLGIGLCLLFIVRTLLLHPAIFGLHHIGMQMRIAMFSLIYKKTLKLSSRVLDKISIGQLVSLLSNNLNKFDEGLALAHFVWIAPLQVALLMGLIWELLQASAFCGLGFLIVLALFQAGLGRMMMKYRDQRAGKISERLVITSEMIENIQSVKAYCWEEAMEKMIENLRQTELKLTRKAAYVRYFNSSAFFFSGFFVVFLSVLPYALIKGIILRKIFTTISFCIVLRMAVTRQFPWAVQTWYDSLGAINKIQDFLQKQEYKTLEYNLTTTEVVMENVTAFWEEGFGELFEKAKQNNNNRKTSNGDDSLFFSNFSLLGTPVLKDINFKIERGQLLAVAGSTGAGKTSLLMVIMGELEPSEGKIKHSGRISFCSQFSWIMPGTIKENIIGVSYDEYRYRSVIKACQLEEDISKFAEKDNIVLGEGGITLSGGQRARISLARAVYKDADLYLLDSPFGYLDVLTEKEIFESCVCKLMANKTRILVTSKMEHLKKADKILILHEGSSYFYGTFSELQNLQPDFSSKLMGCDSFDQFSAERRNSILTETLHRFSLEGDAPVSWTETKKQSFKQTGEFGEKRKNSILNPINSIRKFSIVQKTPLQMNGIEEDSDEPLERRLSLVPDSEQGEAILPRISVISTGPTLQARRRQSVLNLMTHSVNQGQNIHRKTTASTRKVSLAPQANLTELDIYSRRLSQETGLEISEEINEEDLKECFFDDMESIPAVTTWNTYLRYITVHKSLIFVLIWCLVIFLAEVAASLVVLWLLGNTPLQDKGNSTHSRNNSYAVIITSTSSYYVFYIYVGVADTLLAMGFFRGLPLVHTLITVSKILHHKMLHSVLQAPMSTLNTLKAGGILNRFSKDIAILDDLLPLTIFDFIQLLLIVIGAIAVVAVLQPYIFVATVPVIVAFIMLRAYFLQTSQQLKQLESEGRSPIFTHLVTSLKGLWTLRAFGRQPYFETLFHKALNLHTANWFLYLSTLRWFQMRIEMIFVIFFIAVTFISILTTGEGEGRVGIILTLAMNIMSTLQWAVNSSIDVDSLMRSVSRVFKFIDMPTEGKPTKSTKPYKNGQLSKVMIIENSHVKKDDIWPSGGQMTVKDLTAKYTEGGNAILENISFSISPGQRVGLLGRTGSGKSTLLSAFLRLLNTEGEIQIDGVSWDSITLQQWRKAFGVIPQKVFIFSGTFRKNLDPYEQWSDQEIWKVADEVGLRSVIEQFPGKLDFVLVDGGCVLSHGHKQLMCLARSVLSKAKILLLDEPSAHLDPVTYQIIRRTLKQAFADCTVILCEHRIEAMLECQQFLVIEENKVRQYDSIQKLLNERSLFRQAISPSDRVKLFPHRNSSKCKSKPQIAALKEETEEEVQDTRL
SMILES,EC50 [1] [µM],Emax [2] [%],EC50 [3] [µM],Maximum % activity (with co-corrector)
"COc1cccc2c1C(C(=O)NS(=O)(=O)c1cccc3ccccc13)CCO2 (stereo not drawn) [Example 9, 5-methoxy-N-(naphthalene-1-sulfonyl)-3,4-dihydro-2H-1-benzopyran-4-carboxamide]",3 to 10,≥ 150,3 to 10,+++ (≥350)
"CCC1(C(=O)NS(=O)(=O)c2cccc3ccccc23)CCOc2cccc(OC)c21 (stereo not drawn) [Example 10, 4-ethyl-5-methoxy-N-(naphthalene-1-sulfonyl)-3,4-dihydro-2H-1-benzopyran-4-carboxamide]",< 3,≥ 150,< 3,+++ (≥350)
"COc1ccc(Br)c2c1C(C(=O)NS(=O)(=O)c1cccc3ccccc13)CCO2 (stereo not drawn) [Example 11, 8-bromo-5-methoxy-N-(naphthalene-1-sulfonyl)-3,4-dihydro-2H-1-benzopyran-4-carboxamide]",< 3,≥ 150,< 3,+++ (≥350)
"COc1c(Br)cc(Br)c2c1C(C(=O)NS(=O)(=O)c1cccc3ccccc13)CCO2 (stereo not drawn) [Example 12, 6,8-dibromo-5-methoxy-N-(naphthalene-1-sulfonyl)-3,4-dihydro-2H-1-benzopyran-4-carboxamide]",3 to 10,≥ 150,3 to 10,+++ (≥350)
"COc1ccc(C2CCC2)c2c1C(C(=O)NS(=O)(=O)c1cccc3ccccc13)CCO2 (stereo not drawn) [Example 13, 8-cyclobutyl-5-methoxy-N-(naphthalene-1-sulfonyl)-3,4-dihydro-2H-1-benzopyran-4-carboxamide]",< 3,≥ 150,< 3,+++ (≥350)
"COc1ccc(C2CCCC2)c2c1C(C(=O)NS(=O)(=O)c1cccc3ccccc13)CCO2 (stereo not drawn) [Example 14, 8-cyclopentyl-5-methoxy-N-(naphthalene-1-sulfonyl)-3,4-dihydro-2H-1-benzopyran-4-carboxamide]",< 3,≥ 150,< 3,+++ (≥350)
"CCC1(C(=O)NS(=O)(=O)c2cccc3ccccc23)COc2c(OC)cccc21 (stereo not drawn) [Example 15, 3-ethyl-7-methoxy-N-(naphthalene-1-sulfonyl)-2,3-dihydro-1-benzofuran-3-carboxamide]",3 to 10,50 to 150,3 to 10,+++ (≥350)
"Cc1ccccc1S(=O)(=O)NC(=O)C1(C)Cc2ccccc2O1 (stereo not drawn) [Example 16, 2-methyl-N-(2-methylbenzene-1-sulfonyl)-2,3-dihydro-1-benzofuran-2-carboxamide]",≥ 10,< 50,≥ 10,+ (<150)
"Cc1ccccc1S(=O)(=O)NC(=O)C1Cc2ccccc2O1 (stereo not drawn) [Example 17, N-(2-methylbenzene-1-sulfonyl)-2,3-dihydro-1-benzofuran-2-carboxamide]",≥ 10,< 50,≥ 10,+ (<150)
"Cc1ccc2c(c1)C(C(=O)NS(=O)(=O)c1cccc3ccccc13)(c1ccccc1)CCO2 (stereo not drawn) [Example 18, 6-methyl-N-(naphthalene-1-sulfonyl)-4-phenyl-3,4-dihydro-2H-1-benzopyran-4-carboxamide]",3 to 10,50 to 150,< 3,+++ (≥350)
"O=C(NS(=O)(=O)c1cccc2ccccc12)C1(c2ccccc2)CCOc2ccc(Cl)cc21 (stereo not drawn) [Example 19, 6-chloro-N-(naphthalene-1-sulfonyl)-4-phenyl-3,4-dihydro-2H-1-benzopyran-4-carboxamide]",3 to 10,≥ 150,3 to 10,+++ (≥350)
"COc1cccc2c1C(C(=O)NS(=O)(=O)c1cccc3ccccc13)CO2 (stereo not drawn) [Example 20, 4-methoxy-N-(naphthalene-1-sulfonyl)-2,3-dihydro-1-benzofuran-3-carboxamide]",3 to 10,< 50,< 3,++ (≥150 and <350)
"O=C(NS(=O)(=O)c1cccc2ccccc12)C1COc2c(Br)cccc21 (stereo not drawn) [Example 21, 7-bromo-N-(naphthalene-1-sulfonyl)-2,3-dihydro-1-benzofuran-3-carboxamide]",3 to 10,50 to 150,3 to 10,++ (≥150 and <350)
"CCC1(C(=O)NS(=O)(=O)c2cccc3ccccc23)COc2c(Br)cccc21 (stereo not drawn) [Example 22, 7-bromo-3-ethyl-N-(naphthalene-1-sulfonyl)-2,3-dihydro-1-benzofuran-3-carboxamide]",3 to 10,≥ 150,3 to 10,+++ (≥350)
"CCC1(C(=O)NS(=O)(=O)c2cccc3ccccc23)COc2ccccc21 (stereo not drawn) [Example 23, 3-ethyl-N-(naphthalene-1-sulfonyl)-2,3-dihydro-1-benzofuran-3-carboxamide]",< 3,< 50,< 3,++ (≥150 and <350)
"O=C(NS(=O)(=O)c1cccc2ccccc12)C1CCOc2ccccc21 (stereo not drawn) [Example 24, N-(naphthalene-1-sulfonyl)-3,4-dihydro-2H-1-benzopyran-4-carboxamide]",3 to 10,50 to 150,3 to 10,+++ (≥350)
"COc1cccc2c1OCC2C(=O)NS(=O)(=O)c1cccc2ccccc12 (stereo not drawn) [Example 25, 7-methoxy-N-(naphthalene-1-sulfonyl)-2,3-dihydro-1-benzofuran-3-carboxamide]",3 to 10,< 50,3 to 10,++ (≥150 and <350)
"CC(C)c1ccc(S(=O)(=O)NC(=O)C2(C)Cc3ccccc3O2)cc1 (stereo not drawn) [Example 26, 2-methyl-N-[4-(propan-2-yl)benzene-1-sulfonyl]-2,3-dihydro-1-benzofuran-2-carboxamide]",≥ 10,< 50,≥ 10,+ (<150)
"Cc1ccccc1S(=O)(=O)NC(=O)C1COc2ccc(Cl)cc21 (stereo not drawn) [Example 27, 5-chloro-N-(2-methylbenzene-1-sulfonyl)-2,3-dihydro-1-benzofuran-3-carboxamide]",≥ 10,< 50,≥ 10,+ (<150)
"CCCS(=O)(=O)NC(=O)C1COc2ccc(Cl)cc21 (stereo not drawn) [Example 28, 5-chloro-N-(propane-1-sulfonyl)-2,3-dihydro-1-benzofuran-3-carboxamide]",≥ 10,< 50,≥ 10,+ (<150)
"Cc1ccccc1S(=O)(=O)NC(=O)C1COc2ccccc21 (stereo not drawn) [Example 29, N-(2-methylbenzene-1-sulfonyl)-2,3-dihydro-1-benzofuran-3-carboxamide]",≥ 10,< 50,≥ 10,+ (<150)
